In the assay the test system is FoL (Fusarium wilt of tomato). Put plainly: Wilt incidence pot study in tomato (AUDPC). Type of assay: in vivo, Fusarium oxysporum. To be noted: @ 0.1%. How it is done: For wilt incidence study, seeds, seedlings and soil are treated with above mentioned three concentrations of microemulsion formulation. In brief, soil is autoclaved and artificially inoculated with Fusarium spores (@ 2.6×10^5 spores/g soil). Seeds are treated with microemulsion formulations by the method used for germination study, but herein, seeds are sowed directly into 1 kg diseased pot. For seedling treatment, healthy eight-leaf staged seedlings of tomato are treated with three respective concentrations of microemulsion while in case of soil treatment; soil of pot is treated @ 5 ml per 150 cc soil. Healthy and untreated seedlings are taken as control. Each treatment has 5 replicates and all the pots are kept in the net house in Micro model, IITD for 45 days. Carbendazim (@0.1%) is taken as chemical control. For accessing the disease progression in the tomato plant, following grading system is used. Symptoms like yellowing of leaves, wilting of plant, height and weight of plant are examined and given a grade by comparing with the control having maximum diseases infection.
Area under the disease progress curve (AUDPC) is a method to calculate the percentage inhibition of wilt disease and is calculated as:
AUDPC=Σ[(Ri+1+Ri)/2][ti+1−ti], R=disease rating at the ith observation ti=time (days) since previous ratings at the ith observation, n=total number of observations.

Data on 1 molecule can be found in patent publication US20200281194A1, “A Novel Green Micro-Emulsion for Controlling Fungal Wilt Diseases” (priority 2017, published 2020).

For the molecule `COC(=O)Nc1nc2ccccc2[nH]1` [carbendazim, Carbendazim], the “Disease reduction % of FoL” value (Seedling treatment) is reported as 60.02% and the “Disease reduction % of FoL” value (Soil treatment) is 71.24%.
